pKi: −log10 of the molar value. Where two headings read alike, the source gives them in different places.
Key:
[1] = target: T1, human α2-GABAA receptor (BZD site, membrane protein of HEK293 cells) (Homo sapiens, UniProt P18507+P47869); experiment: Radioligand competitive binding assay (3H-flunitrazepam) at the BZD site of the α2-GABAA receptor
T1 construct: expressed in transfected cells
Excerpt: (§1) α subunit, β subunit, and γ subunit are essential for the formation of a complete and functional GABAA receptor. In this example of the present disclosure, HEK293 cells stably expressing the human α1-GABAA receptor (α1-GABAAR) and α2-GABAA receptor (α2-GABAAR) were constructed and separately selected using the lipofection method (Felgner, P. L., et al. Proceedings of the National Academy of Sciences, 1987, 84: 7413-7417). The α1-GABAAR-HEK293 cell model simultaneously expressed the α1 subunit (for protein sequence, see GenBank accession No.: NM_000806.5), the […] (for protein sequence, see GenBank accession No.: NM_000814.5), and the […] (for protein sequence, see GenBank accession No.: NM_000816.3). The α2-GABAAR-HEK293 cell model simultaneously expressed the α2 subunit (for protein sequence, see GenBank accession No.: NM_000807.4), the β3 subunit (for protein sequence, see GenBank accession No.: NM_000814.5), and the γ2 subunit (for protein sequence, see GenBank accession No.: NM_000816.3).
(§2) The above cell lines were subcultured. The α2-GABAAR-HEK293 cells were expanded for testing the affinity of compounds to the benzodiazepine (BZD) site of the GABAA receptor. During the passage process, some of the α1-GABAAR-HEK293 cells and α2-GABAAR-HEK293 cells were suspended and plated on a slide pre-treated with Poly-D-Lysine for electrophysiological testing (method referenced from patent CN107344936A, paragraph 0586).
The affinity of the compounds for the α2-GABAA receptor was determined by competing for the binding of ^3H-flunitrazepam (isotope ^3H-labelled flunitrazepam) to the BZD site on the membrane protein of HEK293 cells stably expressing the human α2-GABAAR.
Membrane preparation: Cells were suspended in 50 mM Tris-HCl buffer (pH=7.4), homogenized 10 times for 20 seconds with a homogenizer on ice, and centrifuged at 1000 g for 10 minutes at 4° C. The supernatant was taken, and the above steps were repeated. The supernatant was centrifuged at 4° C. (33800 g; Thermo, rotor: A27-8×50) for 60 minutes. The precipitate was resuspended in Tris buffer (50 mM Tris-HCl, 10 mM MgCl2, 0.5 mM EDTA, and 10% glycerol). The protein content was determined (BCA (bicinchoninic acid) protein quantification assay based on copper ion reduction, with a BCA kit purchased from Pierce (Annoron (Beijing) Biotechnology Co., Ltd.)), and 1 mL aliquots were prepared and stored at −80° C.
Radioligand competitive binding assay: This assay was performed in a 200 μL system (96-well plate) containing 100 μL of cell membrane. The concentration of ^3H-flunitrazepam was 1 nM, and the concentrations of the test compounds were in the range of […]. Flumazenil was used as a control. 1 μL of 2 mM flumazenil (final […]) was added to each low signal control (low control, LC) well, and 1 μL of dimethyl sulfoxide was added to each high signal control (high control, HC) well. The final concentration of target membrane protein was […]. All sample stock solutions of test compounds were 10 mM dimethyl sulfoxide solutions. All the samples were diluted to a concentration of 0.2 mM with dimethyl sulfoxide, and then subjected to a 4-fold serial dilution for a total of 8 working concentration gradients. The 96-well plate was sealed with a sealing membrane and then incubated on a shaker at room temperature for 1 hour. Meanwhile, a GF/C filter plate was soaked in plate soaking buffer (0.3% PEI (polyethyleneimine, purchased from Sigma-Aldrich, model: P314), stored at 4° C.) for at least 0.5 hours. After the binding incubation was completed, the cells were harvested onto the GF/C filter plate using a cell harvester and washed four times with plate washing buffer (50 mM Tris-HCl, pH 7.4, stored at 4° C.). After drying in an oven at 50° C. for 1 hour, the dried GF/C filter plate was bottom-sealed. The residual radioactivity on the filter membrane was detected by liquid scintillation counting.

[2] = target: T2, human α2-GABAA receptor (α2-GABAAR-HEK293 cells) (Homo sapiens, UniProt P18507+P47869); experiment: Whole-cell patch-clamp electrophysiology, positive allosteric modulatory activity on α2-GABAA receptor; format: cell-based; conditions: read-out: α2-GABAA positive allosteric modulatory activity
T2 construct: expressed in transfected cells
Excerpt: as §1, §2
(§3) The positive regulatory activity of the test drugs on the α1-GABAA receptor and the α2-GABAA receptor was detected by the electrophysiological method. The specific method was as follows:
(§4) Compound concentration setting: The final concentration of the compounds used for screening was 100 nM. For cell lines expressing the α1-GABAA receptor, the concentration of GABA was 0.05 to 0.07 μM (approximately EC2-4). For cell lines expressing the α2-GABAA receptor, the concentration of GABA was 0.10 to 0.11 μM (approximately EC7-8). Electrophysiological testing was performed using the whole-cell patch-clamp technique, which can refer to the method reported in the literature (Nickolls, S. A., et al. British Journal of Pharmacology, 2018, 175: 708-725). The composition of the extracellular solution (ECS) for electrophysiology was as follows: 150 mM NaCl, 5 mM KCl, 2.5 mM CaCl2, 1 mM MgCl2, 10 mM HEPES, and 10 mM glucose (pH 7.4). The formulation of the intracellular solution (ICS) for electrophysiology was as follows: 140 mM CsCl, 11 mM EGTA, 10 mM HEPES, 2 mM CaCl2, 1 mM MgCl2, 4 mM MgATP, and 2 mM TEA (pH 7.3). GABA (γ-aminobutyric acid) powder was prepared into a mother liquor with pure water, which was then diluted in ECS. The compound was first prepared into a 4 mM mother liquor with dimethyl sulfoxide, which was then gradually diluted in the corresponding concentration of GABA-ECS. The solutions were freshly prepared prior to electrophysiological testing.
(§5) Electrophysiological signal acquisition was performed using an EPC 10 amplifier and PatchMaster software (HEKA) or an Axon 700B amplifier and Clampex software (AXON). The recording electrode was made through a drawing process using borosilicate glass, with an electrode resistance of 4 to 6 MΩ. Extracellular administration was performed using the ALA-VC-8PG™ system. A single, independently growing cell was selected. After the glass electrode formed a good seal with the cell, the membrane was ruptured to form the whole-cell configuration. The cell membrane potential was clamped at −60 mV and recorded in Gap-free mode. During the test, the extracellular solution was first applied extracellularly for approximately 20 seconds. After the baseline (Iprebaseline) stabilized, the extracellular solution was switched to GABA-ECS. At this point, the current induced by GABA (Igaba) could be detected. After approximately 10 to 20 seconds, when the current stabilized, the extracellular solution was switched to a mixture of the compound and GABA-ECS. […]

[3] = target: T3, human α1-GABAA receptor (α1-GABAAR-HEK293 cells) (Homo sapiens, UniProt P14867+P18507); experiment: Whole-cell patch-clamp electrophysiology, positive allosteric modulatory activity on α1-GABAA receptor; format: cell-based; conditions: read-out: α1-GABAA positive allosteric modulatory activity
T3 construct: expressed in transfected cells
Excerpt: as §1, §2, §3, §4, §5

[4] = competition with 1 nM 3H-flunitrazepam, Ki calculated from IC50, read-out: α2 Ki

Compound	pKi [1, 4]	activation at 0.1 µM [2] [%]	activation at 0.1 µM [3] [%]	pKi [1]	pKi ([1]; read-out: α2 Ki, competition with 1 nM 3H-flunitrazepam, Ki calculated from IC50)
CC[C@H]1Oc2cc(-c3cc(-c4cnnc5c4ncn5CC)ccc3F)c(OC)cc2N(C)C1=O (single isomer, unassigned) [Example 8]	8.32	130	79		
CCn1cnc2c(-c3ccc(F)c(-c4cc5cc(C(C)=O)c(=O)n(C)c5cc4OC)c3)cnnc21 [Example 1, 3-Acetyl-6-(5-(7-ethyl-7H-imidazo[4,5-c]pyridazin-4-yl)-2-fluorophenyl)-7-methoxy-1-methylquinolin-2(1H)-one]	8.22	151	13		
CCn1cnc2c(-c3ccc(F)c(-c4cc5c(cc4OC)-c4c(cnn4C)CO5)c3)cnnc21 [Example 10, 7-(5-(7-Ethyl-7H-imidazo[4,5-c]pyridazin-4-yl)-2-fluorophenyl)-8-methoxy-1-methyl-1,4-dihydrochromeno[4,3-c]pyrazole]	7.57	98	1		
CCn1cnc2c(-c3ccc(F)c(-c4ccc5c(nnn5CC)c4COC)c3)cnnc21 [Example 11, 7-Ethyl-4-(3-(1-ethyl-4-(methoxymethyl)-1H-benzo[d][1,2,3]triazol-5-yl)-4-fluorophenyl)-7H-imidazo[4,5-c]pyridazine]	7.78	97	75		
CCn1cnc2c(-c3ccc(F)c(-c4ccc5c(nnn5C)c4COC)c3)cnnc21 [Example 16, 7-Ethyl-4-(4-fluoro-3-(4-(methoxymethyl)-1-methyl-1H-benzo[d][1,2,3]triazol-5-yl)phenyl)-7H-imidazo[4,5-c]pyridazine]	7.93	104	38		
CCn1cnc2c(-c3ccc(F)c(-c4cc5c(cc4OC)N(CCN4CCCC4)C(=O)CO5)c3)cnnc21 [Example 17, 7-(5-(7-Ethyl-7H-imidazo[4,5-c]pyridazin-4-yl)-2-fluorophenyl)-6-methoxy-4-(2-(pyrrolidin-1-yl)ethyl)-2H-benzo[b][1,4]oxazin-3(4H)-one]		125	47	7.84	
CCn1cnc2c(-c3ccc(F)c(-c4cc5c(cc4OC)N(CCN4CCOCC4)C(=O)CO5)c3)cnnc21 [Example 18, 7-(5-(7-Ethyl-7H-imidazo[4,5-c]pyridazin-4-yl)-2-fluorophenyl)-6-methoxy-4-(2-morpholinoethyl)-2H-benzo[b][1,4]oxazin-3(4H)-one]		106	30		7.86
CCn1cnc2c(-c3ccc(F)c(-c4cc5c(cc4OC)N(CCN(C)C)C(=O)CO5)c3)cnnc21 [Example 22, 4-(2-(Dimethylamino)ethyl)-7-(5-(7-ethyl-7H-imidazo[4,5-c]pyridazin-4-yl)-2-fluorophenyl)-6-methoxy-2H-benzo[b][1,4]oxazin-3(4H)-one]		115	53	8.00	
CCn1cnc2c(-c3ccc(F)c(-c4cc5c(cc4OC)N(C)C(=O)C(C)O5)c3)cnnc21 (stereo not drawn) [Example 26, 7-(5-(7-Ethyl-7H-imidazo[4,5-c]pyridazin-4-yl)-2-fluorophenyl)-6-methoxy-2,4-dimethyl-2H-benzo[b][1,4]oxazin-3(4H)-one]	8.05	120	48		

More lines, main results first:

pKi [1, 4]	activation at 0.1 µM [2] [%]	activation at 0.1 µM [3] [%]	Compound	pKi [1]	pKi ([1]; read-out: α2 Ki, competition with 1 nM 3H-flunitrazepam, Ki calculated from IC50)
8.45	81	37	CCn1cnc2c(-c3ccc(F)c(-c4cc5cn([C@H]6CCN(C)C[C@@H]6F)nc5cc4OC)c3)cnnc21 (racemic) [Example 63, 7-Ethyl-4-(4-fluoro-3-(2-((3S,4S)-3-fluoro-1-methylpiperidin-4-yl)-6-methoxy-2H-indazol-5-yl)phenyl)-7H-imidazo[4,5-c]pyridazine]		
7.55	142	68	CCn1cnc2c(-c3ccc(F)c(-c4cc5c(cc4OC)ncn5C4COC4)c3)cnnc21 (single isomer, unassigned) [Example 135, 7-Ethyl-4-(4-fluoro-3-(5-methoxy-1-(oxetan-3-yl)-1H-benzo[d]imidazol-6-yl)phenyl)-7H-imidazo[4,5-c]pyridazine]		
7.84	114	42	CCn1cnc2c(-c3ccc(F)c(-c4cc5c(cc4OC)N(C)C(=O)C(COC)O5)c3)cnnc21 (single isomer, unassigned) [Example 162]		
8.07	115	38	CCn1cnc2c(-c3ccc(F)c(-c4cc5oc(=O)n(CCOC)c5cc4OC)c3)cnnc21 [Example 28, 6-(5-(7-Ethyl-7H-imidazo[4,5-c]pyridazin-4-yl)-2-fluorophenyl)-5-methoxy-3-(2-methoxyethyl)benzo[d]oxazol-2(3H)-one]		
8.24	124	70	CCn1cnc2c(-c3ccc(F)c(-c4cc5oc(=O)n(CC6CC6)c5cc4OC)c3)cnnc21 [Example 34, 3-(Cyclopropylmethyl)-6-(5-(7-ethyl-7H-imidazo[4,5-c]pyridazin-4-yl)-2-fluorophenyl)-5-methoxybenzo[d]oxazol-2(3H)-one]		
